Values joined by “and” are separate entries in the source; they are usually repeats but may differ in a detail not shown here. Identical values can stand only once.
Tests used:
[1] = test system: p-tauSer396 in SH-SY5Y cells; assay: Okadaic acid-induced phosphorylation of tau protein (p-tauSer396) in SH-SY5Y cells (Western Blot); type: cell-based, human; conditions: for p-tauSer396 level (%): 24 h, SEM
Experimental: SH-SY5Y cells were cultured in vitro for 24 h in culture media containing different concentrations of compound 2. Then, the cells were treated with 40 nmol/L okadaic acid for 24 h. The p-tauSer396 level of the SH-SY5Y cells was measured by the Western Blot assay.

[2] = test system: PP2A; assay: Okadaic acid-induced PP2A protein expression level in PC12 cells (Western Blot); type: cell-based; conditions: for PP2A (Western Blot signal) / PP2A(%): 24 h; for effect on the PP2A expression level: compound 1, 5 and 10 μmol/L, compared with okadaic acid only
Experimental: PC12 cells were inoculated into a T25 culture flask. After the cells were attached to the wall, compound 1 and compound 2 were added, and then the cells were incubated for 2 h. 40 nmol/L okadaic acid was then added. Then, the cells were incubated for 24 h. The protein was extracted. Based on the Western Blot assay, the PP2A protein expression level in PC12 cells was detected through SDS-PAGE and transfer, immunoblotting, color development, and G: BOX chemiXR5 imaging.

[3] = test system: PC12 cells; assay: Survival rate of PC12 cells in the okadaic acid-induced injury model (CCK-8); type: cell-based; conditions: for OD value at 450 nm, Mean ± SD / viability at 0.1 µM / viability at 0.5 µM / viability at 1 µM / viability at 5 µM / viability at 10 µM / Survival rate %: 24 h, PC12 cells; for viability at 0.1 µM / viability at 0.5 µM / viability at 1 µM / viability at 5 µM / viability at 10 µM: Rattus norvegicus, PC-12, 24 h; for Survival rate %: 1440 min, 5 µM
Experimental: PC12 cells were detached and counted. A cell suspension was prepared at 8.0×10^4 cells/mL. 100 μL of the cell suspension was added to each well of a 96-well cell culture plate. The 96-well cell culture plate was placed in an incubator at 37° C. in 5% CO2 and cultured for 24 h. In an experimental group, the PC12 cells were pre-incubated for 2 h in a culture medium containing a test compound (the concentrations of the compound were 0.1 μmol/L, 0.5 μmol/L, 1 μmol/L, 5 μmol/L, and 10 μmol/L respectively, and the concentrations of the compound were set according to the concentrations in Table 5, Table 6, Table 7, and Table 8). […] In addition, a negative control group (no test compound or okadaic acid added) and a model group (only okadaic acid added) were set. The 96-well cell culture plate was placed in an incubator at 37° C. in 5% CO2 and cultured for 24 h. The cells in the 96-well cell culture plate were stained with 10 μL of CCK-8 in each well, and then cultured in the incubator for 1 h to 2 h. The 96-well cell culture plate was shaken gently for 10 min to mix uniformly and remove bubbles from the 96-well cell culture plate. The OD value of each well at 2=450 nm was read by using a microplate reader. A survival rate of cells was calculated.
Calculation formula for the cell survival rate: […]
The effect of each compound on the survival rate of PC12 cells in the okadaic acid- and Aβ1-42-induced injury models was determined by the CCK-8 cell proliferation assay.

[4] = test system: PC12 cells; assay: Survival rate of PC12 cells in the Aβ1-42-induced injury model (CCK-8); type: cell-based; conditions: for OD value at 450 nm, Mean ± SD: 2 h, then Aβ1-42 40 μmol/L, 24 h, PC12 cells
[5] = test system: PP2A; assay: PP2A protein expression level in PC12 cells treated with Aβ (Western Blot); type: cell-based; conditions: then Aβ 40 μmol/L; for PP2A (Western Blot signal) / PP2A protein expression level, β-actin(%): 2 h, 24 h
Experimental: PC12 cells were cultured adherently. 0.1 μmol/L compound 2, 0.5 μmol/L compound 2, 1 μmol/L compound 2, 5 μmol/L compound 2, and 10 μmol/L compound 2 were added respectively. Then, the cells were incubated for 2 h. 40 μmol/L Aβ was then added. Then, the cells were incubated for 24 h. Total protein was extracted. PP2A activity was detected by the Western Blot assay.

[6] = compound 0.1 μmol/L, PC12 cells
[7] = compound 0.5 μmol/L, PC12 cells
[8] = compound 1 μmol/L, 2 h, then okadaic acid 40 nmol/L
[9] = compound 5 μmol/L, 2 h, then okadaic acid 40 nmol/L
[10] = compound 10 μmol/L, 2 h, then okadaic acid 40 nmol/L
[11] = compound 0.1 μmol/L, 2 h, then okadaic acid 50 nmol/L
[12] = compound 0.5 μmol/L, 2 h, then okadaic acid 50 nmol/L
[13] = compound 1 μmol/L, 2 h, then okadaic acid 50 nmol/L
[14] = compound 5 μmol/L, 2 h, then okadaic acid 50 nmol/L
[15] = compound 10 μmol/L, 2 h, then okadaic acid 50 nmol/L

**Q.** With `C=C1[C@@H](O)[C@@H]2O[C@]3(CC[C@H](/C=C/[C@@H](C)[C@@H]4CC(C)=C[C@@]5(O[C@H](C[C@@](C)(O)C(=O)O)CC[C@H]5O)O4)O3)CC[C@H]2O[C@@H]1[C@@H](O)C[C@H](C)[C@H]1O[C@@]2(CCCCO2)CC[C@H]1C` [Okadaic Acid, okadaic acid, reference compound] as the compound, how does the “p-tauSer396 level (%)” value ([1]; okadaic acid 40 nmol/L alone (model group), n = 3) read?
**A.** Its value is 0.855 ± 0.023%.

**Q.** What about the “PP2A (Western Blot signal)” value ([2]; okadaic acid 40 nmol/L alone) of the same compound?
**A.** Its value is 339.39.

**Q.** What about the “PP2A(%)” value ([2]; okadaic acid 40 nmol/L alone) of the same compound?
**A.** The value was 8%.

**Q.** What about the “OD value at 450 nm, Mean ± SD” value ([3]; okadaic acid 50 nmol/L alone (model group)) of the same compound?
**A.** The value was 0.643 ± 0.014 and 1.225 ± 0.018 and 0.669 ± 0.025.

**Q.** Which results are given for `COCc1cc2oc(=N)c3ccccc3n2n1` [Compound 2, 2-(methoxymethyl)-5H-benzo[d]pyrazolo[5,1-b][1,3]oxazin-5-imine]?
**A.** okadaic acid-induced phosphorylation of tau protein ([1]; compared with okadaic acid only): can significantly inhibit okadaic acid-induced phosphorylation of tau protein in cells; p-tauSer396 level (%) ([1]; compound 0.1 μmol/L, then okadaic acid 40 nmol/L, n = 3): 0.761 ± 0.008%; p-tauSer396 level (%) ([1]; compound 0.3 μmol/L, then okadaic acid 40 nmol/L, n = 3): 0.663 ± 0.027%; change of p-tauSer396 level ([1]; compound 1.0 μmol/L and 3.0 μmol/L): decreases significantly (P<0.05); p-tauSer396 level (%) ([1]; compound 1.0 μmol/L, then okadaic acid 40 nmol/L, n = 3, P<0.05 vs negative control): 0.557 ± 0.013 %; p-tauSer396 level (%) ([1]; compound 3.0 μmol/L, then okadaic acid 40 nmol/L, n = 3, P<0.05 vs negative control): 0.578 ± 0.025 %; change of p-tauSer396 level ([1]; compound 10 μmol/L): decreases significantly (P<0.01); p-tauSer396 level (%) ([1]; compound 10 μmol/L, then okadaic acid 40 nmol/L, n = 3, P<0.01 vs negative control): 0.522 ± 0.016 %; viability at 0.1 µM ([4]; Rattus norvegicus, PC-12, 24 h): 50.7%; viability at 0.5 µM ([4]; Rattus norvegicus, PC-12, 24 h): 50.6%; viability at 1 µM ([4]; Rattus norvegicus, PC-12, 24 h): 55.7%; viability at 5 µM ([4]; Rattus norvegicus, PC-12, 24 h): 68.3%; viability at 10 µM ([4]; Rattus norvegicus, PC-12, 24 h): 79.1%; OD value at 450 nm, Mean ± SD ([4]; compound 0.1 μmol/L): 0.699 ± 0.027; OD value at 450 nm, Mean ± SD ([4]; compound 0.5 μmol/L): 0.698 ± 0.024; OD value at 450 nm, Mean ± SD ([4]; compound 1 μmol/L): 0.768 ± 0.015; OD value at 450 nm, Mean ± SD ([4]; compound 5 μmol/L): 0.941 ± 0.018; OD value at 450 nm, Mean ± SD ([4]; compound 10 μmol/L): 1.09 ± 0.026; survival rate compared with Aβ1-42 model group ([4]; compound 0.1 and 0.5 μmol/L): no statistical difference (P>0.05); survival rate compared with Aβ1-42 model group ([4]; compound 1, 5 and 10 μmol/L): statistical differences (P<0.01); PP2A (Western Blot signal) [5, 6]: 1025.7; PP2A protein expression level, β-actin(%) [5, 6]: 31.24%; PP2A (Western Blot signal) [5, 7]: 1129.7; PP2A protein expression level, β-actin(%) [5, 7]: 33.18%; PP2A (Western Blot signal) ([5]; compound 1 μmol/L, PC12 cells): 1180.1; PP2A protein expression level, β-actin(%) ([5]; compound 1 μmol/L, PC12 cells): 33.51%; PP2A (Western Blot signal) ([5]; compound 5 μmol/L, PC12 cells): 1284.7; PP2A protein expression level, β-actin(%) ([5]; compound 5 μmol/L, PC12 cells): 35.61%; PP2A (Western Blot signal) ([5]; compound 10 μmol/L, PC12 cells): 2192.1; PP2A protein expression level, β-actin(%) ([5]; compound 10 μmol/L, PC12 cells (normal cells 58.95%)): 58.59%; effect on PP2A protein expression level ([5]; compound 10 μmol/L, PC12 cells): can significantly increase the PP2A protein expression level; effect on PP2A protein expression level ([5]; compound 0.1, 0.5, 1 and 5 μmol/L, PC12 cells): can increase the PP2A protein expression level in PC12 cells that is reduced due to Aβ, in a specific dose-effect relationship; PP2A (Western Blot signal) [2, 8]: 557.1; PP2A(%) [2, 8]: 14%; PP2A (Western Blot signal) [2, 9]: 688.01; PP2A(%) [2, 9]: 18%; PP2A (Western Blot signal) [2, 10]: 1130.4; PP2A(%) [2, 10]: 29%; effect on the PP2A expression level [2]: can significantly increase the PP2A expression level dose-dependently; viability at 0.1 µM [3, 11]: 49.2%; viability at 0.5 µM [3, 12]: 51%; viability at 1 µM [3, 13]: 59.4%; viability at 5 µM [3, 14]: 70.8%; viability at 10 µM [3, 15]: 78.4%; OD value at 450 nm, Mean ± SD [3, 11]: 0.652 ± 0.018; OD value at 450 nm, Mean ± SD [3, 12]: 0.676 ± 0.016; OD value at 450 nm, Mean ± SD [3, 13]: 0.787 ± 0.028; OD value at 450 nm, Mean ± SD [3, 14]: 0.92 ± 0.008 and 0.967 ± 0.018; Survival rate % [3, 14]: 72.93%; OD value at 450 nm, Mean ± SD [3, 15]: 1.04 ± 0.017; survival rate compared with okadaic acid model group ([3]; compound 0.1 and 0.5 μmol/L): no statistical difference (P>0.05); survival rate compared with okadaic acid model group ([3]; compound 1, 5 and 10 μmol/L): significant statistical differences (P<0.01)

**Q.** `N=c1oc2cc(CO)nn2c2ccccc12` [Compound 1, (5-imino-5H-benzo[d]pyrazolo[5,1-b][1,3]oxazin-2-yl) methanol] was tested. Which “PP2A (Western Blot signal)” value [2, 8] did it give?
**A.** Its value is 437.09.

**Q.** What about the “PP2A(%)” value [2, 8] of the same compound?
**A.** The value was 14%.

**Q.** And the “PP2A (Western Blot signal)” value [2, 9]?
**A.** Its value is 625.9.

**Q.** And the “PP2A(%)” value [2, 9]?
**A.** The value was 17%.

**Q.** What about the “PP2A (Western Blot signal)” value [2, 10] of the same compound?
**A.** The value was 953.23.

**Q.** What about the “PP2A(%)” value [2, 10] of the same compound?
**A.** Its value is 22%.

**Q.** And the “effect on the PP2A expression level” value [2]?
**A.** Its value is “can significantly increase the PP2A expression level dose-dependently”.

**Q.** And the viability at 0.1 µM [3, 11]?
**A.** The viability at 0.1 µM was 58.2%.

**Q.** And the viability at 0.5 µM [3, 12]?
**A.** The viability at 0.5 µM was 60.2%.

**Q.** What about the viability at 1 µM [3, 13] of the same compound?
**A.** Its viability at 1 µM is 63.1%.

**Q.** And the viability at 5 µM [3, 14]?
**A.** Its viability at 5 µM is 70.5%.

**Q.** And the viability at 10 µM [3, 15]?
**A.** The viability at 10 µM was 76.6%.

**Q.** And the “survival rate compared with okadaic acid model group” value ([3]; compound 0.1 μmol/L)?
**A.** The value was “statistical difference (P<0.05)”.

**Q.** What about the “OD value at 450 nm, Mean ± SD” value [3, 11] of the same compound?
**A.** The value was 1.337 ± 0.008.

**Q.** What about the “OD value at 450 nm, Mean ± SD” value [3, 12] of the same compound?
**A.** The value was 1.382 ± 0.013.

**Q.** What about the “OD value at 450 nm, Mean ± SD” value [3, 13] of the same compound?
**A.** The value was 1.449 ± 0.013.

**Q.** And the Survival rate % [3, 14]?
**A.** Its Survival rate % is 71.70%.

**Q.** And the “OD value at 450 nm, Mean ± SD” value [3, 15]?
**A.** The value was 1.76 ± 0.032.

**Q.** And the “survival rate compared with okadaic acid model group” value ([3]; compound 0.5, 1, 5 and 10 μmol/L)?
**A.** The value was “significant statistical differences (P<0.01)”.

Reference: patent US20260335329A1, “PROTEIN PHOSPHATASE AGONIST AND USE” (priority 2022, published 2026)
